Reference: patent EP4205753A1, “ANTIVIRAL PLANT EXTRACT COMPOSITION AND METHOD FOR PREPARING SUCH COMPOSITION” (priority 2021, dated 2023)
Like-named read-outs stand apart in the source and are kept apart here.

What was measured:
[1] = tested on: SARS-CoV-2
[2] = tested on: SARS-CoV-2; test: microbe, parasite or virus in culture; details: Severe acute respiratory syndrome coronavirus 2, Vero C1008, 55 h, read-out: viability in comparison with non-infected cells

Structure (SMILES)	cell viability in comparison with non-infected cells ([1]; 1 µM) [%]	cell viability in comparison with non-infected cells ([1]; 10 µM) [%]	viability at 25 µM [2] [%]
C=C[C@H](OC(C)=O)c1ccc(OC(C)=O)cc1 [AAC, acetoxychavicol acetate]	59	66	
CCC(CC)COC(=O)[C@H](C)N[P@](=O)(OC[C@H]1O[C@@](C#N)(c2ccc3c(N)ncnn23)[C@H](O)[C@@H]1O)Oc1ccccc1 [Remdesivir]			97
